Data: patent US20240261398A1 (priority 2018, published 2024)
Counter-ions that a name gives are not always drawn. Like-named read-outs stand apart in the source and are kept apart here.

Tests used:
[1] = system: A/California/07/2009 virus (H1N1; CA07); set-up: species or system BALB/c mice; settings: mouse, in vivo
[2] = system: A/California/07/2009 virus (H1N1; CA07); set-up: species or system BALB/c mice; settings: mouse, in vivo; remark: listed apart in the source
influenza virus = type: in vivo, mice
Ebola GP protein = type: in vivo, BALB/c mice; settings: for Mean value of antibody titers, Vaccine + compound: Ebola VLP 1 μg/dose + compound, i.m. twice, serum two weeks after second immunization, mean of 4 mice; for Antibody titer ratio (a): [VLP + candidate compound]/[VLP + AddaVax]; for Mean value of antibody titers, Only compound (c): compound alone, mice treated as in the influenza adjuvant screening

Structure (SMILES): CCN(Cc1cccc(S(=O)(=O)[O-])c1)c1ccc(C(=C2C=CC(=[N+](CC)Cc3cccc(S(=O)(=O)[O-])c3)C=C2)c2ccccc2S(=O)(=O)[O-])cc1.[Na+].[Na+]
- Antibody titers in primary screening, Vaccine + compound [1]: 1333.33
- Relative ratio of antibody titer to alum (compound/alum), primary screening [1]: 0.69
- Antibody titers in secondary screening, Vaccine + compound [2]: 990
- Relative ratio of antibody titer to alum (compound/alum), secondary screening [2]: 1.65

Structure (SMILES): O.O=P([O-])([O-])OCC(O)CO.[Ca+2] (centres unmarked)
- Antibody titers in primary screening, Vaccine + compound [1]: 1920.00
- Relative ratio of antibody titer to alum (compound/alum), primary screening [1]: 1.71
- Antibody titers in secondary screening, Vaccine + compound [2]: 4800
- Relative ratio of antibody titer to alum (compound/alum), secondary screening [2]: 3.33
- Antibody titers (IgG) (influenza virus; mouse, in vivo): 261.25

Structure (SMILES): CCN(Cc1cccc(S(=O)(=O)[O-])c1)c1ccc(C(=C2C=CC(=[N+](CC)Cc3cccc(S(=O)(=O)[O-])c3)C=C2)c2ccc(O)cc2S(=O)(=O)[O-])cc1.[Na+].[Na+]
- Antibody titers in primary screening, Vaccine + compound [1]: 2133.33
- Relative ratio of antibody titer to alum (compound/alum), primary screening [1]: 1.00
- Antibody titers in secondary screening, Vaccine + compound [2]: 440
- Relative ratio of antibody titer to alum (compound/alum), secondary screening [2]: 0.73

Structure (SMILES): CC1(C)[C@@H](O[C@H]2O[C@H](C(=O)O)[C@@H](O)[C@H](O)[C@H]2O[C@@H]2O[C@H](C(=O)O)[C@@H](O)[C@H](O)[C@H]2O)CC[C@]2(C)[C@H]3C(=O)C=C4[C@@H]5C[C@@](C)(C(=O)O)CC[C@]5(C)CC[C@@]4(C)[C@]3(C)CC[C@@H]12
- Antibody titers in primary screening, Vaccine + compound [1]: 5973.33
- Antibody titers in secondary screening, Vaccine + compound [2]: 2560

Structure (SMILES): O=C([O-])[C@H](O)[C@@H](O)[C@H](O)[C@H](O)CO.O=C([O-])[C@H](O)[C@@H](O)[C@H](O)[C@H](O)CO.[Fe+2]
- Antibody titers in primary screening, Vaccine + compound [1]: 853.33
- Relative ratio of antibody titer to alum (compound/alum), primary screening [1]: 0.76
- Antibody titers in secondary screening, Vaccine + compound [2]: 3040
- Relative ratio of antibody titer to alum (compound/alum), secondary screening [2]: 1.90

Structure (SMILES): O=C([O-])[C@H](O)[C@@H](O)[C@H](O)[C@H](O)CO.[Na+]
- Mean value of antibody titers, Only compound [2]: <10
- Mean value of antibody titers, Vaccine + compound [2]: 1600.00
- Relative ratio of antibody titer to alum (Compound/alum) [2]: 1.00

Structure (SMILES): O=S([O-])O.[Na+]
- Mean value of antibody titers, Only compound [2]: <10
- Mean value of antibody titers, Vaccine + compound [2]: 730.00
- Relative ratio of antibody titer to alum (Compound/alum) [2]: 0.55

Structure (SMILES): CC(C)=CCC[C@@H](C)CC=O
- Antibody titers in primary screening, Vaccine + compound [1]: 333.33
- Antibody titers in secondary screening, Vaccine + compound [2]: 35

Structure (SMILES): CC(C)=CCCC(C)CCO (racemic) [(+/−)-Citronellol]
- Antibody titers in primary screening, Vaccine + compound [1]: 960.00
- Antibody titers in secondary screening, Vaccine + compound [2]: 260

Structure (SMILES): CC(/C=C/C=C(C)/C=C/C(=O)O)=C\C=C\C=C(C)\C=C\C=C(C)\C=C\C(=O)O (stereo in doubt) [Norbixin]
- Antibody titers in primary screening, Vaccine + compound [1]: 7680.00
- Relative ratio of antibody titer to alum (compound/alum), primary screening [1]: 8.00
- Relative ratio of antibody titer to alum (compound/alum), secondary screening [2]: 5.14
- virus-specific antibody titers compared with the alum adjuvant [2]: equal to or higher than the alum adjuvant did
- Antibody titers (IgG) (influenza virus; mouse, in vivo): 340

Structure (SMILES): CC(C)C1=CC2=CC[C@@H]3[C@](C)(CCC[C@@]3(C)C(=O)O)[C@H]2CC1 [Abietic acid]
- Antibody titers in primary screening, Vaccine + compound [1]: 533.33
- Antibody titers in secondary screening, Vaccine + compound [2]: 1280

Structure (SMILES): Cc1c(C(=O)O)c(O)cc2c1C(=O)c1c(O)c([C@@H]3O[C@H](CO)[C@@H](O)[C@H](O)[C@H]3O)c(O)c(O)c1C2=O [Carminic acid]
- Antibody titers in primary screening, Vaccine + compound [1]: 746.67
- Antibody titers in secondary screening, Vaccine + compound [2]: 960

Structure (SMILES): CC(/C=C/C=C(\C)C(=O)O[C@@H]1O[C@H](CO[C@@H]2O[C@H](CO)[C@@H](O)[C@H](O)[C@H]2O)[C@@H](O)[C@H](O)[C@H]1O)=C\C=C\C=C(C)\C=C\C=C(/C)C(=O)O[C@@H]1O[C@H](CO[C@@H]2O[C@H](CO)[C@@H](O)[C@H](O)[C@H]2O)[C@@H](O)[C@H](O)[C@H]1O [Crocin]
- Antibody titers in primary screening, Vaccine + compound [1]: 1066.67
- Antibody titers in secondary screening, Vaccine + compound [2]: 480

Structure (SMILES): CCO [Ethanol]
- Mean value of antibody titers, Only compound [2]: <10
- Mean value of antibody titers, Vaccine + compound [2]: 400.00
- Relative ratio of antibody titer to alum (Compound/alum) [2]: 0.56
- Mean value of antibody titers, Vaccine + compound (Ebola GP protein): 140.00
- Antibody titer ratio (a) (Ebola GP protein): 0.23
- Mean value of antibody titers, Only compound (c) (Ebola GP protein): <10

Structure (SMILES): CC(C)=CCC/C(C)=C/COC=O [Geranyl Formate]
- Antibody titers in primary screening, Vaccine + compound [1]: 2560.00
- Antibody titers in secondary screening, Vaccine + compound [2]: 960

Structure (SMILES): COc1ccc([C@@H]2CC(=O)c3c(O)cc(O[C@@H]4O[C@H](CO[C@@H]5O[C@@H](C)[C@H](O)[C@@H](O)[C@H]5O)[C@@H](O)[C@H](O)[C@H]4O)cc3O2)cc1O [Hesperidin]
- Antibody titers in primary screening, Vaccine + compound [1]: 3840.00
- Relative ratio of antibody titer to alum (compound/alum), primary screening [1]: 1.13
- Antibody titers in secondary screening, Vaccine + compound [2]: 2240
- Relative ratio of antibody titer to alum (compound/alum), secondary screening [2]: 4.00

Structure (SMILES): CC(CC=O)CCCC(C)(C)O (centres unmarked) [Hydroxycitronellal]
- Antibody titers in primary screening, Vaccine + compound [1]: 2773.33
- Antibody titers in secondary screening, Vaccine + compound [2]: 1280

Structure (SMILES): O=C1/C(=C2\Nc3ccc(S(=O)(=O)[O-])cc3C2=O)Nc2ccc(S(=O)(=O)[O-])cc21.[Na+].[Na+] [Indigo Carmine]
- Antibody titers in primary screening, Vaccine + compound [1]: 1280.00
- Relative ratio of antibody titer to alum (compound/alum), primary screening [1]: 1.50
- Antibody titers in secondary screening, Vaccine + compound [2]: 485
- Relative ratio of antibody titer to alum (compound/alum), secondary screening [2]: 0.81

Structure (SMILES): CC=Cc1ccc(O)c(OC)c1 [Isoeugenol]
- Antibody titers in primary screening, Vaccine + compound [1]: 2986.67
- Antibody titers in secondary screening, Vaccine + compound [2]: 140

Structure (SMILES): c1ccc2cnccc2c1 [Isoquinoline]
- Antibody titers in primary screening, Vaccine + compound [1]: 1493.33
- Antibody titers in secondary screening, Vaccine + compound [2]: 1200

Structure (SMILES): COC(=O)c1ccccc1N [Methyl Anthranilate]
- Antibody titers in primary screening, Vaccine + compound [1]: 693.33
- Antibody titers in secondary screening, Vaccine + compound [2]: 2240

Structure (SMILES): C[C@@H]1O[C@@H](O[C@H]2[C@H](Oc3cc(O)c4c(c3)O[C@H](c3ccc(O)cc3)CC4=O)O[C@H](CO)[C@@H](O)[C@@H]2O)[C@H](O)[C@H](O)[C@H]1O [Naringin]
- Antibody titers in primary screening, Vaccine + compound [1]: 2133.33
- Antibody titers in secondary screening, Vaccine + compound [2]: 2240

Structure (SMILES): COC(=O)[C@H](Cc1ccccc1)NC(=O)[C@H](CC(=O)O)NCCC(C)(C)C [Neotame]
- Antibody titers in primary screening, Vaccine + compound [1]: 2560.00
- Relative ratio of antibody titer to alum (compound/alum), primary screening [1]: 2.00
- Antibody titers in secondary screening, Vaccine + compound [2]: 720
- Relative ratio of antibody titer to alum (compound/alum), secondary screening [2]: 1.00
- virus-specific antibody titers compared with the alum adjuvant [2]: equal to or higher than the alum adjuvant did

Structure (SMILES): [Cl-].[K+] [Potassium chloride]
- Mean value of antibody titers, Only compound [2]: <10
- Mean value of antibody titers, Vaccine + compound [2]: 2920.00
- Relative ratio of antibody titer to alum (Compound/alum) [2]: 1.83

Structure (SMILES): Cc1cc2nc3c(=O)[nH]c(=O)nc-3n(C[C@H](O)[C@H](O)[C@H](O)CO)c2cc1C [Riboflavin]
- Antibody titers in primary screening, Vaccine + compound [1]: 2560.00
- Antibody titers in secondary screening, Vaccine + compound [2]: 2240
- Antibody titers (IgG) (influenza virus; nasal immunization with vaccine + compound, 100 μg/dose (saponin 10 μg/dose), Day 0, 14, 28): 880

Structure (SMILES): C[C@@H]1O[C@@H](OC[C@H]2O[C@@H](Oc3c(-c4ccc(O)c(O)c4)oc4cc(O)cc(O)c4c3=O)[C@H](O)[C@@H](O)[C@@H]2O)[C@H](O)[C@H](O)[C@H]1O [Rutin]
- Antibody titers in primary screening, Vaccine + compound [1]: 2560.00
- Antibody titers in secondary screening, Vaccine + compound [2]: 1320

Structure (SMILES): CC(=O)[O-].[Na+] [Sodium acetate]
- Mean value of antibody titers, Only compound [2]: <10
- Mean value of antibody titers, Vaccine + compound [2]: 740.00
- Relative ratio of antibody titer to alum (Compound/alum) [2]: 0.66

Structure (SMILES): O=C([O-])c1ccccc1.[Na+] [Sodium benzoate]
- Mean value of antibody titers, Only compound [2]: <10
- Mean value of antibody titers, Vaccine + compound [2]: 1600.00
- Relative ratio of antibody titer to alum (Compound/alum) [2]: 1.21
- virus-specific antibody titers compared with the alum adjuvant [2]: equal to or higher than the alum adjuvant did

Structure (SMILES): [Br-].[Na+] [Sodium bromide]
- Mean value of antibody titers, Only compound [2]: <10
- Mean value of antibody titers, Vaccine + compound [2]: 970.00
- Relative ratio of antibody titer to alum (Compound/alum) [2]: 0.87

Structure (SMILES): O=S([O-])[O-].[Na+].[Na+] [Sodium sulfite]
- Mean value of antibody titers, Only compound [2]: <10
- Mean value of antibody titers, Vaccine + compound [2]: 2080.00
- Relative ratio of antibody titer to alum (Compound/alum) [2]: 1.30
- virus-specific antibody titers compared with the alum adjuvant [2]: equal to or higher than the alum adjuvant did

Structure (SMILES): O=S([O-])([O-])=S.[Na+].[Na+] [Sodium thiosulfate]
- Mean value of antibody titers, Only compound [2]: <10
- Mean value of antibody titers, Vaccine + compound [2]: 1320.00
- Relative ratio of antibody titer to alum (Compound/alum) [2]: 1.00

Structure (SMILES): Cn1cnc2c1c(=O)[nH]c(=O)n2C [Theobromine]
- Antibody titers in primary screening, Vaccine + compound [1]: 1333.33
- Antibody titers in secondary screening, Vaccine + compound [2]: 1440

Structure (SMILES): OC[C@@H](O)[C@H](O)[C@@H](O)CO [Xylitol]
- Mean value of antibody titers, Only compound [2]: <10
- Mean value of antibody titers, Vaccine + compound [2]: 560.00
- Relative ratio of antibody titer to alum (Compound/alum) [2]: 0.35

Structure (SMILES): [O]=[Zn] [Zinc oxide]
- Mean value of antibody titers, Vaccine + compound (Ebola GP protein): 400.00
- Antibody titer ratio (a) (Ebola GP protein): 0.67
- Mean value of antibody titers, Only compound (c) (Ebola GP protein): <10

Structure (SMILES): CC1=C(/C=C/C(C)=C/C=C/C(C)=C/C=C/C=C(C)/C=C/C=C(C)/C=C/C2=C(C)CCCC2(C)C)C(C)(C)CCC1 [β-Carotene]
- Antibody titers in primary screening, Vaccine + compound [1]: 960.00
- Antibody titers in secondary screening, Vaccine + compound [2]: 1120

Structure (SMILES): OC[C@H]1O[C@@H]2O[C@H]3[C@H](O)[C@@H](O)[C@@H](O[C@H]4[C@H](O)[C@@H](O)[C@@H](O[C@H]5[C@H](O)[C@@H](O)[C@@H](O[C@H]6[C@H](O)[C@@H](O)[C@@H](O[C@H]7[C@H](O)[C@@H](O)[C@@H](O[C@H]8[C@H](O)[C@@H](O)[C@@H](O[C@H]1[C@H](O)[C@H]2O)O[C@@H]8CO)O[C@@H]7CO)O[C@@H]6CO)O[C@@H]5CO)O[C@@H]4CO)O[C@@H]3CO [β-Cyclodextrin]
- Antibody titers in primary screening, Vaccine + compound [1]: 373.33
- Relative ratio of antibody titer to alum (compound/alum), primary screening [1]: 0.22
- Antibody titers in secondary screening, Vaccine + compound [2]: 1440
- Relative ratio of antibody titer to alum (compound/alum), secondary screening [2]: 0.90
